From patent EP0779076A1, “PEPTIDE, A METHOD OF OBTAINING IT AND A PHARMACEUTICAL COMPOUND BASED ON IT” (priority 1994, dated 1996)
Non-standard residues stand in square brackets, D forms with d. Residues, ends and D or L forms follow the SMILES beside them.

Tests used:
rats = test: Tail flick analgesic test; format: in vivo; conditions: intranasally 0.005 mg/kg
Description: Opium-like activity was studied in a classical way by […] tests on isolated organs: - Test GPI (Guang T.A, Kosterlitz H.W, Agonist and antagonist action of morphine like drugs on the guinea pigs isolated ileum, Br.J. Pharmacol., 1966, V.27N3.P.514-527 - Test MVD; Hughs J., Kosterlitz H.W., Leslie F.M, Effect of morphine on adrenergic transmission in mouse is different. Assessment of agonist and antagonist potencies of narcotics, Br.J. Pharmacol., 1975, V. 53, N3-P. 371-381) As well as tests to determine opium-like activities by the […] hot plate test (Aukier S.I., New hot plate tests to qualify analgesic and narcotic antagonist activities, Eur.J. Pharmacol., 174 - V.27 Ni p.1-4) and "Tail flick" on rats (D'Amour F.E., Smith D.L, A method for determining loss, Exp.Ther.,1974, V.72 Ni-p.74-79).
The analgesic activities of those peptides were tested by the "tail flick" method on rats which received intranasally a dose of 0.005 mg/kg. A real analgesic effect of 242 units was characteristic to the peptide H-Arg-Tyr-D-Ala-Phe-Gly-OH. Table 2 outlines the findings with regard to the opium-like activity for this peptide group.

**Q.** Which analgesic effect (rats) does the source give for C[C@@H](NC(=O)[C@H](Cc1ccc(O)cc1)NC(=O)[C@@H](N)CCCNC(=N)N)C(=O)N[C@@H](Cc1ccccc1)C(=O)NCC(=O)O [H-Arg-Tyr-D-Ala-Phe-Gly-OH] (H-RY[dA]FG-OH) here?
**A.** Its analgesic effect is 242 units.

**Q.** What about the solubility in alcohol (alcohol) of the same compound?
**A.** Its solubility in alcohol is “not well dissolvable in alcohol”.

**Q.** And the solubility in chloroform (chloroform)?
**A.** Its solubility in chloroform is “nonsoluble in chloroform”.

**Q.** And the solubility in water (water)?
**A.** The solubility in water was “dissolvable in water”.
